Structures can show the parent of a compound that is named as a salt.
Tests used:
[1] = Acute toxicity (LD50) in rats; conditions: rat, in vivo
[2] = tested on: liver lipid peroxide (LPO); assay: Level of liver lipid peroxide (LPO, TBA method) after surgical invasion (laparothoractomy) in rats; format: in vivo, Male Donryu rats; conditions: 5 mg/kg i.v. an hour before surgical invasion (laparothoractomy); 24 hours later; elevation significantly suppressed, p<0.05 (Mann-Whitney U)
Description: (§1) Using a model of hepatic metastasis of tumor, an experiment was conducted to determine a correlation of hepatic metastasis of tumor with a level of liver lipid peroxide (LPO). In addition, an experiment was effected on the Present Compound in terms of its suppressory effect of liver lipid peroxide (LPO) and suppressory effect on hepatic metastasis of tumor.
(§2) Male Donryu rats (ca. 10-weeks aged) were employed as an experimental animal, while AH60C cells (derived from rat hepatoma) were used as a tumor cell. The rats were divided into three groups, namely a laparothoractomy group (Group LT) undergoing intratracheal intubation, followed by thoraco-laparotomy for one hour, a laparotomy group (Group L) undergoing only laparotomy for one hour and a control group (Group C) undergoing laparotomy, followed by immediate closure of the abdomen. The rats were subjected to laparotomy under anesthesia with ether and Ketalar and given 5×10^5 of AH60C cells through the portal vein to inflict surgical invasion, followed by laparotomy three weeks later to determine the number of tumor nodules on the liver surface. In addition to this, the serum samples were drawn, while the liver and lung tissues were isolated, on Disease Days 1. 2 and 3 to determine their respective levels of lipid peroxide by the TBA method. […]

AH60C cells = assay: Number of tumor nodules on the liver surface in the AH60C hepatic metastasis model in rats; format: in vivo, Male Donryu rats; AH60C cells derived from rat hepatoma; conditions: 5 mg/kg i.v. an hour before surgical invasion (laparothoractomy); 5×10^5 AH60C cells via portal vein; 3 weeks later; Group C (not treated) 27.2±30.0; p<0.01 (Mann-Whitney U)
Description: as §1, §2

Question: With Cc1c(C)c2c(c(C)c1OP(=O)(O)OC1=C(O)[C@@H]([C@@H](O)CO)OC1=O)CCC(C)(CCCC(C)CCCC(C)CCCC(C)C)O2 (mixture of isomers) [EPC-K, potassium salt of a phosphoric acid diester of L-ascorbic acid and DL-α-tocopherol] as the molecule, how does the LD50 ([1]; iv) read?
Answer: ≥ 100 mg/kg

Question: And the LD50 ([1]; po)?
Answer: 5000 mg/kg

Question: And the “level of liver lipid peroxide (LPO)” value [2]?
Answer: 18.9 ± 17.9 nmol/g

Question: What about the “number of tumor nodules on the liver surface” value (AH60C cells) of the same molecule?
Answer: 8.9±12.7

From patent US5552389A, “Suppressory compositions against hepatic metastases of tumors” (Senju Pharmaceutical Co., Ltd., priority 1994, dated 1996)
